Read-outs that look alike come from different tables or passages of the source.
Assays:
in vitro = settings: rat
Protocol: Rat hepatocytes were used to model in vivo hepatic clearance of the compounds by the ADO enzyme. Briefly, a Hepatocyte Stability Assay was carried out using cryopreserved rat hepatocytes.

human recombinant ADO = biological target: T1, human recombinant ADO (Homo sapiens, UniProt Q96SZ5); format: in vitro ADME
T1 sequence (Q96SZ5 1-270): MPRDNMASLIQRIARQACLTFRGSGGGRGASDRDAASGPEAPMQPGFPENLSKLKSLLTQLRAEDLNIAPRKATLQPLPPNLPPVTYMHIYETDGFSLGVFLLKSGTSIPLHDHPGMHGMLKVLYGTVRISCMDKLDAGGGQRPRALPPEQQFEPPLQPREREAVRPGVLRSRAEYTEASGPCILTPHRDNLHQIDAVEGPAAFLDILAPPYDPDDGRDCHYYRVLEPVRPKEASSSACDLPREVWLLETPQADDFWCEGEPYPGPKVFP
Procedure, shortened: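 Test compound (15 mM) incubated with 60 μg/ml human recombinant ADO and 20 nM O2-sensitive fluorescent probe at 37 °C in sealed chamber. Initial rate of fluorescence increase (ex 380/em 650 nm) gave oxygen consumption, expressed relative to 15 mM cysteamine.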

in vivo = settings: mouse, 10 mg
Protocol: (§1) Pharmacokinetic parameters of a test compound in a rodent species (mouse and/or rat) were determined by administering a test compound at 2 and 10 mg free base equivalents per kg via the intravenous and oral gavage route to groups of three animals per route.
(§2) Blood samples were taken at various times after administration, plasma prepared, and submitted to analysis for parent drug using a qualified LC-MS-MS assay. Pharmacokinetics parameters derived from the plasma analytical data were determined using non-compartmental analysis.

[1] = test system: cystinotic human fibroblasts; assay: Cystine depletion assay; format: cell-based; settings: for cystine depletion levels (in words): compared to cysteamine; for Cystine depletion: compound at 50 μM or 100 μM, Tables 1-3
Procedure, shortened: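 Cystinotic human fibroblasts treated with compound at 50 μM or 100 μM for 60 min at 37° C. After homogenisation and acid protein precipitation, cystine measured by HILIC LC-MS/MS and normalised to protein. Depletion expressed as percent of that achieved by cysteamine at similar concentration.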

Cystine reactivity assay = assay: Cystine reactivity assay; parameters: Cystine Reactivity: unit not given here; settings: for Cystine Reactivity: Tables 1-3; for reactivity with cystine compared to cysteamine (in words): text summary of Tables 1-3
Procedure, shortened: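 3 mM test compound incubated with 100 nM BODIPY FL L-cystine in phosphate buffer, pH 7.4, 30 °C; S–S cleavage relieves quenching, raising fluorescence. Rate taken as slope (RFU/min) of linear fit over time, expressed as percentage of 3 mM cysteamine.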

[2] = Rodent pharmacokinetic assay (rat); format: in vivo; settings: plasma, 2 and 10 mg free base equivalents per kg, intravenous and oral gavage
Protocol: as §1, §2

[3] = Rodent pharmacokinetic assay (mouse); settings: plasma, 10 mg
Protocol: as §1, §2

microsomal CLint at 3 μM (in vitro; cryopreserved rat hepatocytes) [µL/min/mg] | ADO metabolism (human recombinant ADO; human, 15 mM) [%] | bioavailability ([2]; read-out: Rat PK Bioavailability) [%] | half-life ([2]; read-out: Rat PK-Half life (converted)) [h] | half-life [3] [h] | bioavailability ([3]; oral) [%] | SMILES | microsomal CLint (in vitro; hepatocytes) [µL/min/mg] | ADO metabolism (human recombinant ADO; relative to 15 mM cysteamine, Tables 1-3) [%] | metabolism by ADO compared to cysteamine (in words) (human recombinant ADO; text summary of Tables 1-3) | bioavailability (in vivo) [%] | half-life (in vivo) [h] | cystine depletion levels (in words) [1] | Cystine depletion [1] [%] | Cystine Reactivity (Cystine reactivity assay) | reactivity with cystine compared to cysteamine (in words) (Cystine reactivity assay) | metabolism by ADO compared to cysteamine (in words) (human recombinant ADO)
 |  |  |  |  |  | SCCN1CCCC1 [Compound 2b] | 15700 | 4 | significantly reduced metabolism by ADO compared to cysteamine | 33 | 0.4 | similar | 99 | 12392 | increased reactivity with cystine compared to cysteamine | 
12600 | 1 | 34 | 2.3 | 3.9 | 38 | CN1CCC(S)CC1 [Compound 2d] |  |  |  |  |  | slightly decreased | 79 | 7332 | increased reactivity with cystine compared to cysteamine | significantly reduced metabolism by ADO compared to cysteamine

Reference: patent US10906904B2, “ADO-resistant cysteamine analogs and uses thereof” (HORIZON ORPHAN LLC, priority 2015, dated 2021)
